Patent US8236769B2, “Agent for improving insulin resistance” (Morinaga Milk Industry Co., Ltd., priority 2005, dated 2012)

Columns and labels:
[1] = system: TNF-α; assay: Production quantity of TNF-α of epididymal adipose tissue from treated ZDF rats (culture supernatant, ELISA); type: in vivo, rat; details: 45th day
Procedure: (§1) In Example 2, the same Test Sample and the negative sample as those prepared in Example 1 were used.
(§2) After 1 hour of the culture, culture supernatants were collected, and concentrations of TNF-α and MCP-1 in the culture supernatants were measured by ELISA method (Biosource).

[2] = system: MCP-1; assay: Production quantity of MCP-1 of epididymal adipose tissue from treated ZDF rats (culture supernatant, ELISA); type: in vivo, rat; details: 45th day
Procedure: as §1, §2

[3] = system: ZDF (Zucker Diabetic Fatty) rats; details: serum
Procedure: 3-O-β-D-glucopyranosyl-4-methylergost-7-en-3-ol produced in Preparation Example 1 was dissolved in DMSO, and the concentration was adjusted to 15 μg/ml with distilled water to thereby prepare Test Sample. In this case, the final DMSO concentration was adjusted to 0.2%. Furthermore, a solution without the test samples was prepared as a negative sample.
6-week-old male ZDF rats (purchased from Charles River Laboratories, Inc., USA) were preliminarily fed with a high-fat diet (Research Diet, Inc.) for 1 month. These rats were divided into groups, each consisting of 6 rats. Each of the groups of rats was orally administered with 1 ml per 400 g of body weight (37.5 μg/kg of body weight) of the Test Sample or the negative sample once a day everyday with a sonde. On the 45th day from the initiation of the administration of the samples, blood was collected from the rats under fasting, and the level of the free fatty acid in serum were measured by using NEFA C-test Wako (Wako Pure Chemical Industries, Ltd.).

[4] = WO 2006/035525; cited from earlier work
[5] = system: ZDF (Zucker Diabetic Fatty) rats; assay: Insulin tolerance test in ZDF rats; type: in vivo, rat; details: 35th day; 37.5 μg/kg orally once a day; human insulin 10 U/Kg i.p. after 4 hours fasting; 15 to 60 minutes after insulin; FIG. 1
Procedure: In Example 3, the same Test Sample and the negative sample as those prepared in Examples 1 and 2 were used.
The semice were divided into groups, each consisting of 6 rats. […] In the present example, the insulin tolerance test was performed in such a manner that: the rats were fasted for 4 hours, and were then intraperitoneally administered with 10 U/Kg of body weight of a human insulin (Eli Lily and Company); and changes with time in blood glucose level were measured from the initiation of the administration of the insulin to after 60 minutes later.

[6] = adipose tissue, Tukey-Kramer's test
[7] = culture supernatant of epididymal fat tissue after 1 hour at 37° C., 37.5 μg/kg orally once a day

## CC1C(O[C@@H]2O[C@H](CO)[C@@H](O)[C@H](O)[C@H]2O)CC[C@@]2(C)C1CC=C1[C@@H]3CC[C@H]([C@H](C)CC[C@H](C)C(C)C)[C@@]3(C)CC[C@@H]12 (stereo partly drawn) [Test Sample, 3-O-β-D-glucopyranosyl-4-methylergost-7-en-3-ol]
[1]; [6]
  inhibitory effect on the production of TNF-α compared with negative sample group: significant inhibitory effects
[1]; [7]
  TNF-α: 117.4 ± 47.9 pg/mL
[2]; [6]
  inhibitory effect on the production of MCP-1 compared with negative sample group: significant inhibitory effects
[2]; [7]
  MCP-1: 23.3 ± 3.6 pg/mL
[3]; 45th day, 37.5 μg/kg orally once a day, decreased to this % of negative sample group
  free fatty acid levels compared with the group administered with the negative sample: 53%
[3]; fasting, 45th day of administration, 37.5 μg/kg of body weight orally once a day, male ZDF rats on high-fat diet
  Free fatty acid: 1.948 ± 0.648 mEq/l
[4]
  effect on hemoglobin Alc level: decreasing hemoglobin Alc level
  effect on hyperglycemia: improving hyperglycemia
[5]
  blood glucose level in insulin tolerance test compared with negative sample group: lower blood glucose levels
